{"source": "patent US20200290950A1", "about": "“ALKAMIDE COMPOUNDS AND USES THEREOF” (NORTH CAROLINA STATE UNIVERSITY, priority 2017, published 2020)", "key": {"RBL-2H3 cells [1]": {"test_system": "RBL-2H3 cells", "experiment": "Fluo-4 calcium assay, RBL-2H3 cells (Example 1)", "format": "cell-based, rat", "procedure": "FIGS. 3A-3H. A15 inhibits calcium influx in RBL-2H3 cells and BMMCs. RBL-2H3 cells (FIGS. 3A-3D) and BMMCs (FIGS. 3E-3H) were plated and incubated overnight prior to treatments. For DNP-BSA treatments, overnight incubation also included 1 μg/mL IgE anti-DNP. Prior to stimulation, cells were washed and loaded with the fluorescent, calcium-sensitive dye fluo-4 AM using the Fluo-4 AM Direct™ Calcium Assay Kit and fluorescence was measured on a microplate reader. Calcium influx was triggered in all experiments using either 1 μM A23187 or 50 ng/mL DNP-BSA, as indicated. Bar graphs represent the means±SEM of the Δ in RFU's at 1 min post-A23187- or DNP-BSA-stimulation from 3 independent experiments (FIGS. 3B, 3D, 3F, 3H). Statistical analysis was performed using a one-way ANOVA with Dunnett's post-hoc test, *p<0.05, **p<0.01, ***p<0.001.\nFIG. 9. A15 inhibits calcium influx in RBL-2H3 cells. Prior to stimulation, cells were washed and loaded with the fluorescent, calcium-sensitive dye fluo-4 AM using the Fluo-4 AM Direct™ Calcium Assay Kit. Cells were treated with 100 μM A15 (D, E, F), 0.25% ethanol only (vehicle) (A, B, C), 1 μM A23187 (G, H, I), and 100 μM A15 in combination with 1 μM A23187 (J, K, L) as indicated. Images were acquired at 30, 60, and 120 seconds, post-stimulation. Images are representative of several experiments.\nRBL-2H3, BMMC, RAW 264.7, or Jurkat cells were plated in clear-bottom, black, 96-well plates (BioExpress, Kaysville, Utah) and incubated overnight with media only or media containing IgE anti-DNP. Cells were loaded with the calcium-sensitive dye fluo-4 AM using the Fluo-4 Direct™ Calcium Assay Kit (Thermo Fisher Scientific) according to the manufacturer's instructions by incubating at 37° C. for 30 min followed by 30 min at room temperature. Prior to stimulation, baseline fluorescent readings were measured from triplicate wells in 5 s intervals for 1 min using a Synergy HT microplate reader with 485/20 nm excitation and 528/20 nm emission filters. Cells were then treated with either 1 μM A23187 or 50 ng/mL DNP-BSA prepared in calcium- and magnesium-containing or calcium- and magnesium-free HBSS with 20 mM HEPES, and fluorescence was measured in 10 s intervals for 2 min. The final concentration of ethanol was 0.25% in these assays. The average baseline fluorescence of each well was subtracted from the stimulated fluorescent values to calculate the change (Δ) in RFU's and graphed as shown.\nCells loaded with fluo-4 were treated and observed with an Axioskop 2 microscope (Zeiss, Oberkochen, Germany) using a fluorescent illuminator HXP-120 light source and images were acquired at 30, 60, or 120 sec after stimulation with a AxioCam MRc5 camera (Zeiss) and AxioVision software (Zeiss)."}, "β-hexosaminidase": {"test_system": "β-hexosaminidase", "experiment": "β-hexosaminidase enzyme activity in RBL-2H3 cell lysates with p-NAG", "format": "biochemical, rat", "settings": "1 hr at 37° C.", "procedure": "FIG. 8. […] RBL-2H3 cells were lysed with 0.1% Triton X-100 to release β-hex from the cells. Lysates were incubated for 1 hr at 37° C. with the substrate, p-NAG, in combination with the indicated concentrations of A15 or vehicle only. The absorbance at 405 nm was measured using a microplate spectrophotometer. Results shown are the means±SEM of triplicate wells from a representative experiment out of 2 independent experiments. Statistical analysis was performed using a one-way ANOVA with Dunnett's post-hoc test."}, "[2]": {"experiment": "TDI-induced scratching bouts (itch)", "format": "in vivo, mouse", "from_the_text": "Several different model systems were utilized for these experiments. In one model, dorsal root ganglia were obtained from mice and the neurons cultured in vitro. The neurons were then stimulated in the presence/absence of A15 and YM8-85 and the calcium responses monitored by fluorescence microscopy. In the second model, the alkamides were applied to mouse skin in mineral oil. The reactions of these mice to heat, cold, and tactile stimulation was then compared with mice that had not received treatment with A15. In a third model, mice were sensitized to the chemical compound toluene-2,4-diisocyanate (TDI). TDI is an industrial chemical which causes hypersensitive skin lesions and itching in exposed humans and animals. The physiological response to TDI is complex involving type 2 T lymphocytes, cytokines, mast cells, and neurons. Alkamides were applied to sensitized animals and then ear swelling and bouts of scratching were monitored.\nThe effects of A15 on TDI-induced itch. The itch response was also monitored in mice sensitized and treated with TDI. Treated mice were video recorded and the number of scratching bouts quantified by an observer."}, "RBL-2H3 cells [3]": {"test_system": "RBL-2H3 cells", "experiment": "TNF-α production, ELISA, 8 hrs (Example 1)", "format": "cell-based, rat", "settings": "1 μM A23187, all doses tested", "procedure": "FIGS. 6A-6B. A15 inhibits de novo production of TNF-α and PGE2 from RBL-2H3 cells. RBL-2H3 cells were plated and incubated overnight prior to stimulation. Cells were stimulated with 1 μM A23187 in combination with the indicated doses of A15. Supernatants were collected 8 hrs later and TNF-α (FIG. 6A) or PGE2 (FIG. 6B) levels were measured using ELISA kits. Data shown are the means±SEM from 3 independent experiments. Statistical analysis was performed using a one-way ANOVA with Dunnett's post-hoc test, *p<0.05, **p<0.01, ***p<0.001.\nBone marrow cells were isolated from the femurs of 6-8 week old C57BL/6 mice and cultured in RPMI-1640 containing 10% heat-inactivated FBS, non-essential amino acids, HEPES buffer, sodium pyruvate, 100 U/mL penicillin, 100 μg/mL streptomycin, 5 ng/mL mIL-3, and 5 ng/mL mSCF for 4-6 weeks until mature, bone marrow-derived mast cells (BMMCs) were obtained, as described previously (Kuehn et al., 2010). Differentiation into >98% mast cells was confirmed through toluidine blue staining (1%, pH 1). RBL-2H3, RAW 264.7, and Jurkat cells were obtained from the American Type Culture Collection (Manassas, Va.). […] Optical density was determined using a Synergy HT microplate reader (BioTek Instruments, Inc, Winooski, Vt.). […]"}}, "data": [{"smiles": "CCCCCCC/C=C/C=C/C(=O)NCC(C)C", "note": "[A15, (2E,4E)-N-Isobutyldodeca-2,4-dienamide]", "values": [{"measurement": "calcium response", "setting": "RBL-2H3 cells [1]; RBL-2H3 cells treated with IgE anti-DNP and DNP-BSA", "value": "blocked the calcium response"}, {"measurement": "inhibition at 100 µM", "setting": "RBL-2H3 cells [1]; Rattus norvegicus, 1 min, A23187-treated RBL-2H3 cells, 100 μM, 1 min post-stimulation, read-out: inhibition of rise in intracellular calcium", "value": 83.2, "unit": "%"}, {"measurement": "constitutive fluorescence in unstimulated cells, compared to vehicle", "setting": "RBL-2H3 cells [1]; unstimulated RBL-2H3 cells, 100 μM, pixel intensity, n=5 fields", "value": "did not cause a significant change in the level of constitutive fluorescence"}, {"measurement": "enzymatic activity of β-hex (production of chromogenic product from p-NAG)", "setting": "β-hexosaminidase", "value": "not inhibited"}, {"measurement": "scratching bouts in TDI treated mice", "setting": "[2]; higher dose 1.0%", "value": "strong significant inhibition of scratching"}, {"measurement": "scratching bouts in TDI treated mice", "setting": "[2]; lower dose 0.1%", "value": "strong significant inhibition of scratching"}, {"measurement": "production of TNF-α", "setting": "RBL-2H3 cells [3]", "value": "significant, dose dependent inhibition"}]}]}
